Assay results reported in ChEMBL document CHEMBL2331479, “Superacid synthesis of halogen containing N-substituted-4-aminobenzene sulfonamides: new selective tumor-associated carbonic anhydrase inhibitors” (Bioorg Med Chem, 2013).

Assays:
Homo sapiens [1] = species: Homo sapiens; assay: Selectivity ratio of Ki for human carbonic anhydrase 1 to Ki for human carbonic anhydrase 9
Carbonic anhydrase 12 = Carbonic anhydrase 12 (Homo sapiens, UniProt O43570); assay: Inhibition of human catalytic domain of carbonic anhydrase 12 preincubated for 15 mins by CO2 hydration stopped-flow assay
Carbonic anhydrase 1 = Carbonic anhydrase 1 (Homo sapiens, UniProt P00915); assay: Inhibition of human recombinant carbonic anhydrase 1 preincubated for 15 mins by CO2 hydration stopped-flow assay
Carbonic anhydrase 9 = Carbonic anhydrase 9 (Homo sapiens, UniProt Q16790); assay: Inhibition of human catalytic domain of carbonic anhydrase 9 preincubated for 15 mins by CO2 hydration stopped-flow assay
Carbonic anhydrase 2 = Carbonic anhydrase 2 (Homo sapiens, UniProt P00918); assay: Inhibition of human recombinant carbonic anhydrase 2 preincubated for 15 mins by CO2 hydration stopped-flow assay
Homo sapiens [2] = species: Homo sapiens; assay: Selectivity ratio of Ki for human carbonic anhydrase 2 to Ki for human carbonic anhydrase 9

Carbonic anhydrase 12, sequence (O43570 whole entry, the tested form may be a part): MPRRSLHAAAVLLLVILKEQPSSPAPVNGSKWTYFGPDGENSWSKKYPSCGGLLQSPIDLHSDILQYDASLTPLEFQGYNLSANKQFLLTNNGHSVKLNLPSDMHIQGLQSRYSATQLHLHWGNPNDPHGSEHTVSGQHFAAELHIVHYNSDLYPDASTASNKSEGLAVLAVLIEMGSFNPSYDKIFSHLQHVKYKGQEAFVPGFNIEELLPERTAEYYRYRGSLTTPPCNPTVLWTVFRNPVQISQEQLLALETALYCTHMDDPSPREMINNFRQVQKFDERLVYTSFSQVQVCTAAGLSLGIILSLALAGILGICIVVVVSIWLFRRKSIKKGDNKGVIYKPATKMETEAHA
Carbonic anhydrase 1, sequence (P00915 whole entry, the tested form may be a part): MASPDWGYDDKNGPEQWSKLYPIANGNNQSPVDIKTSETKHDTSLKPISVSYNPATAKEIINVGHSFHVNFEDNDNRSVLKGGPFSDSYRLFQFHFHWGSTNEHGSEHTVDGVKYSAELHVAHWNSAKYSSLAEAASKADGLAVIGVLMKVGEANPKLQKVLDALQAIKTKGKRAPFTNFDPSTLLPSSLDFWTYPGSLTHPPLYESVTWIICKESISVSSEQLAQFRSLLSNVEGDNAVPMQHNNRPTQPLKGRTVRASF

| Ratio Ki (Homo sapiens [1]) | Ki (Carbonic anhydrase 12) [nM] | Ki (Carbonic anhydrase 1) [nM] | Ki (Carbonic anhydrase 9) [nM] | Ki (Carbonic anhydrase 2) [nM] | Ratio Ki (Homo sapiens [2]) | SMILES |
| --- | --- | --- | --- | --- | --- | --- |
| 4.7 | 298 | 637 | 136 | 431 | 3.2 | CC1CN(C)S(=O)(=O)c2ccc(N)cc21 (configuration not stated) |
| 2.1 | 39.7 | 174 | – | 75 | 0.9 | CC(C)(F)CNS(=O)(=O)c1ccc(N)cc1 |
| 2.1 | 1520 | 5180 | 2470 | 1400 | 0.6 | CC(F)(Cl)CNS(=O)(=O)c1ccc(N)cc1 (configuration not stated) |
| 2.1 | 1280 | 7140 | 3460 | 4710 | 1.4 | C=C(C)CNS(=O)(=O)c1ccc(N)cc1 |
| 1.1 | 1100 | 4800 | 4400 | 4600 | 1 | CC(=O)Nc1ccc(S(=O)(=O)NCC(C)F)cc1 (configuration not stated) |
| 62 | 96 | 5630 | 90 | 5180 | 57.5 | C=C(Cl)CNS(=O)(=O)c1ccc(N)cc1 |
| 2.5 | 1840 | 5140 | 2080 | 3460 | 1.7 | CCCNS(=O)(=O)c1ccc(N)cc1 |
| 2 | 1140 | 4220 | 2120 | 4230 | 2 | Nc1ccc(S(=O)(=O)NCCC(F)F)cc1 |
| 3.2 | 79.4 | 151 | 47 | 85.3 | 1.8 | CC(F)(F)CNS(=O)(=O)c1ccc(N)cc1 |
| 1460 | – | – | – | – | 23.1 | NS(=O)(=O)c1ccc(Nc2nc(Cl)nc(NCCO)n2)cc1 |
| 1.5 | 966 | 2080 | 1400 | 2340 | 1.7 | C=CCNc1ccc(S(N)(=O)=O)cc1 |
| 4 | 73.9 | 175 | 43.5 | 57.6 | 1.3 | CC(F)CNc1ccc(S(N)(=O)=O)cc1 (configuration not stated) |
| 2.7 | 1950 | 6760 | 2470 | 799 | 0.3 | Nc1ccc(S(=O)(=O)NCCC(F)Cl)cc1 (configuration not stated) |
| – | – | 419 | – | 395 | – | Cc1ccc(S(=O)(=O)Nc2ccccc2)cc1 |

| SMILES | Ratio Ki (Homo sapiens [1]) | Ki (Carbonic anhydrase 12) [nM] | Ki (Carbonic anhydrase 1) [nM] | Ki (Carbonic anhydrase 9) [nM] | Ki (Carbonic anhydrase 2) [nM] | Ratio Ki (Homo sapiens [2]) |
| --- | --- | --- | --- | --- | --- | --- |
| C=C(Cl)CN(CC(=C)Cl)S(=O)(=O)c1ccc(N)cc1 | 92.8 | 79.8 | 6800 | 73.2 | 5000 | 68.2 |
| NS(=O)(=O)c1ccc2c(c1)CCCN2 | 3.8 | 80.7 | 192 | 50.5 | 78.9 | 1.6 |
